Measured values published in patent publication US4604397A, “Certain benzo-(pyrano and thiopyrano)-pyridines, useful as CNS agents” (Ciba-Geigy Corporation, priority 1985, dated 1986).
Where a name gives a salt, the structure may show the parent alone.

Legend:
[1] = biological target: presynaptic dopamine receptor; experiment: dopamine binding assay in vitro: displacement of 3H-ADTN from calf-caudate nucleus membranes; parameters: species or system calf (bovine); details: 0.2 nM 3H-ADTN, 60 minutes at 25° C.
Procedure: The presynaptic dopamine receptor binding properties indicative of the presynaptic dopamine receptor regulatory, e.g. agonistic activity, of the compounds of the invention are determined in the dopamine binding assay in vitro by the following method involving the displacement of the dopamine agonist 2-amino-6,7-dihydroxy-1,2,3,4-tetrahydronaphthalene (^3 H-ADTN) from membranes from calf-caudate nucleus. [Eur. J. Pharmacol. 55, 137 (1979)].
Bovine brain tissue is homogenized in 50 volumes (based on original tissue weight) of 50 mM Tris-HCl buffer, pH 7.7 at 25° C., using a Brinkman Polytron, setting 6 for 20 seconds. The homogenate is centrifuged at 50,000×g for 10 minutes. The pellet is resuspended in 50 volumes of 50 mM Tris-HCl buffer, pH 7.7 and recentrifuged. The final pellet is resuspended in 200 volumes of incubation media containing: 50 mM Tris-HCl buffer, pH 7.7; 0.1% ascorbic acid; 0.001 mM pargyline; 120 mM NaCl; 5 mM KCl, 2 mM CaCl2 and 1 mM MgCl2.
In the binding assay, triplicate 2 ml samples (equivalent to 5 mg/ml original tissue) of the membrane suspension are incubated for 60 minutes at 25° C. with 0.2 nM ^3 H-ADTN without or in the presence of various concentrations of test compound in solvent. The reaction is terminated by filtering with 5 ml of cold 50 mM Tris-HCl buffer pH 7.7. The filters are placed in scintillation vials with 5 ml of scintillation solution, disrupted by vigorous mechanical shaking for 90 minutes, and counted for radioactivity.
The IC50 values represent the concentration of test compounds required to inhibit the specific binding of 0.2 nM ^3 H-ADTN by 50%, and are determined graphically.

[2] = tested on: serotonin receptor; experiment: serotonin receptor agonist activity in vivo: decrease in accumulation of 5-hydroxytryptophane in rat brain
Procedure: The serotonin receptor agonist activity is determined in vivo by measuring the decrease in the accumulation of 5-hydroxytryptophane in the brain after administration of a test compound in the rat, as described in J. Med. Chem. 21, 864 (1978).

[3] = biological target: T1, serotonin receptor (Bos taurus, UniProt F1MGM3); experiment: 3H-serotonin binding assay in vitro, calf brain (caudate nuclei) membranes; details: 7 nM 3H-serotonin, 10 minutes at 37° C.
T1 construct: Caudate nuclei are dissected from freshly obtained calf brains; from tissue; host or cells: calf brain caudate nuclei membranes
T1 sequence (F1MGM3 1-403): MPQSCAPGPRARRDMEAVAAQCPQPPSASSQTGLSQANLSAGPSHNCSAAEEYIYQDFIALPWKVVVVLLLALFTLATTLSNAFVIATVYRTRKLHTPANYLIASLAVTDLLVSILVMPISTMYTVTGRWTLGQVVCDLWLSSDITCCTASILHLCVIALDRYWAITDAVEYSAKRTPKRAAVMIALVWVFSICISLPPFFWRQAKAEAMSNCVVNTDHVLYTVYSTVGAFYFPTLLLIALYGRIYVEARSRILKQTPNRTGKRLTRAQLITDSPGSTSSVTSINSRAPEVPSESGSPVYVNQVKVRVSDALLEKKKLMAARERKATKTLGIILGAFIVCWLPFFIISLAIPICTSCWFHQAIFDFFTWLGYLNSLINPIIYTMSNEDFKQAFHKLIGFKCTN
Procedure: The serotonin binding properties indicative of serotonin agonistic receptor regulating activity of compounds of the invention are determined in the in vitro binding assay as follows:
Membrane suspensions are prepared from calf brain and incubated with ^3 H-serotonin by a modification of the procedure described by Bennett and Snyder. Caudate nuclei are dissected from freshly obtained calf brains; they are frozen and stored at -70° C. for up to 3 months. For each binding experiment, a portion of tissue is homogenized with a Brinkmann Polytron in 50 volumes (w/v) of ice-cold 50 mM Tris-HCl (pH 7.7 at 25° C.) containing 10 mM dithiothreitol. The homogenate is centrifuged twice at 50,000×g for 10 minutes with rehomogenization of the pellet in fresh buffer between spins. The final pellet is homogenized in 100 volumes (based on original tissue weight) cold 50 mM Tris-HCl (pH 7.6 at 25° C.) containing […] pargyline, 0.1% ascorbic acid, 120 mM NaCl, 5 mM KCl, 2 mM CaCl2, 1 mM MgCl2 and 10 mM dithiothreitol. The suspension is warmed in a 37° C. bath for 10 minutes and then returned to ice.
In the binding assay, 2-ml aliquots of the final tissue suspension (equivalent to 20 mg of original wet tissue) are added to tubes (on ice) containing ^3 H-serotonin with or without test compound freshly dissolved in 0.1% ascorbic acid. The final concentration of ^3 H-serotonin is 7 nM. Test compounds are present over a wide range of concentrations, with triplicate tubes for each concentration. Tubes are incubated at 37° C. for 10 minutes and the suspensions are immediately filtered under vacuum through Whatman GF/B glass fiber filters. The filters are washed with 10 ml of cold Tris-HCl (pH 7.7 at 25° C.), placed in scintillation vials with 12 ml of scintillation solution, disrupted by vigorous mechanical shaking for 90 minutes and counted for radioactivity. The IC50 values (concentrations of test compounds required to inhibit the specific binding of 7 nM ^3 H-serotonin by 50%) are determined graphically.

[4] = tested on: reserpine-induced hypomotility in the rat; experiment: reversal of reserpine-induced hypomotility in the rat; type: in vivo; details: ip
Excerpt: In vivo such selectivity can be determined by measurement of the degree of reversal of reserpine induced hypomotility in the rat. The relative absence of such reversal at effective doses (e.g. in the GBL model) is indicative of selective presynaptic dopamine agonist activity.

[5] = tested on: dopamine autoreceptor; experiment: rat gamma-butyrolactone (GBL) model, inhibition of GBL-induced DOPA accumulation (presynaptic dopamine agonist activity); type: in vivo
Procedure: Indicative of potential neuroleptic activity of the compounds of the invention, the in-vivo presynaptic dopamine agonist activity (also called dopamine autoreceptor agonist activity) is determined in the rat gamma-butyrolactone (GBL) model by a modification of the procedure described by Walters and Roth, Naunyn Schmiedeberg's Arch. Pharmacol. 296, 5 (1976). In this model, a presynaptic dopamine agonist inhibits the GBL-induced accumulation of the dopamine precursor DOPA after pretreatment with 3-hydroxybenzylhydrazine (NSD-1015), a DOPA decarboxylase inhibitor.
Test compounds are dissolved in 0.9% saline, with sodium metabisulfite to prevent oxidation, if required. […] Dihydroxyphenylalanine (DOPA) is analyzed by High Pressure Liquid Chromatography/Electrochemistry (HPLC/EC) techniques using a Bio-analytical Systems (BAS) Model LC-150 series Liquid Chromatograph. […] Compounds are detected with an electro-chemical detector having an oxidizing potential of 0.7 volts and sensitivity setting of 20 nAmps/V. Tissue concentrations and recoveries are calculated by using the internal standard dihydroxybenzylamine (DHBA). […] Data is statistically analysed by one-way Analysis of Variance with Duncan's Multiple Comparison Test. The activity of the test compounds is determined as the percent inhibition of DOPA accumulation at a given dose. […]

Compound	IC50 [1] [nM]	IC50 [3] [nM]	also measured
CCCCN1CCC[C@@H]2c3cccc(O)c3OC[C@H]21 (relative stereo) [trans-4-butyl-7-hydroxy-1,2,3,4a,5,10b-hexahydro-4H-[1]-benzopyran-[3,4-b]pyridine hydrochloride]	~20	–	–
Cc1ccc2c(c1O)OC[C@@H]1[C@@H]2CCCN1C.Cl (relative stereo) [trans-7-hydroxy-4,8-dimethyl-1,2,3,4a,5,10b-hexahydro-4H-[1]-benzopyrano[3,4-b]pyridine hydrochloride]	–	–	decrease of accumulation of 5-hydroxytryptophane in the frontoparietal cortex of rat brain (in words) ([2]; dose of 0.1 mg/Kg, compared with about 25% decrease of the 8-bromo-7-methoxy-4-methyl compound): similarly effective
CCCN1CCC[C@@H]2c3cccc(O)c3OC[C@H]21 (relative stereo) [trans-7-hydroxy-4-propyl-1,2,3,4a,5,10b-hexahydro-4H-[1]-benzopyrano[3,4-b]pyridine hydrochloride]	~60	–	–
COc1cccc2c1OC[C@@H]1[C@@H]2CCCN1C (relative stereo) [trans-7-methoxy-4-methyl-1,2,3,4a,5,10b-hexahydro-4H-[1]-benzopyrano[3,4-b]pyridine hydrochloride]	–	~80	–
COc1c(Br)ccc2c1OC[C@@H]1[C@@H]2CCCN1C.Cl (relative stereo) [trans-8-bromo-7-methoxy-4-methyl-1,2,3,4a,5,10b-hexahydro-4H-[1]-benzopyrano[3,4-b]pyridine hydrochloride]	–	~20	decrease of accumulation of 5-hydroxytryptophane in the frontoparietal cortex of rat brain ([2]; 2.5 mg/kg s.c.): about 25%
CCCN1CCC[C@@H]2c3cc(O)ccc3OC[C@H]21.Cl (relative stereo) [trans-9-hydroxy-4-propyl-1,2,3,4a,5,10b-hexahydro-4H-[1]-benzopyrano[3,4-b]pyridine hydrochloride]	~30	–	ED50 [4]: ~10 mg/kg; ED50 ([5]; ip, read-out: ED50 in the GBL model (dose at which DOPA accumulation is inhibited by 50%)): ~0.16 mg/kg; activity in the GBL model orally ([5]; oral, dose of about 0.5 mg/kg): active
CN1CCC[C@@H]2c3c(O)cccc3OC[C@H]21 (relative stereo) [trans-10-hydroxy-4-methyl-1,2,3,4a,5,10b-hexahydro-4H-[1]-benzopyrano[3,4-b]pyridine hydrochloride]	–	~400	–
CCCN1CCC[C@@H]2c3c(OC)cccc3OC[C@H]21 (relative stereo) [trans-10-methoxy-4-propyl-1,2,3,4a,5,10b-hexahydro-4H-[1]-benzopyrano[3,4-b]pyridine hydrochloride]	–	~20	–
CCCN1CCC=C2c3cc(O)ccc3SCC21 (stereo not shown) [9-hydroxy-4-propyl-2,3,4a,5-tetrahydro-4H-[1]-benzothiopyrano[3,4-b]pyridine hydrochloride]	~10	–	–
